Assay results taken from paper PMC7044277 (Nature Communications, 2020).
Several values for one entry are separate records, joined by “and”; a condition that tells them apart may be missing. Equal entries are not always repeated.

Assays:
Type in all cases: cell-based
Parameters in all cases: GPCRome screening signal at PTGIR / GPCRome screening signal at PTH1R / GPCRome screening signal at PTH2R / GPCRome screening signal at QRFP / GPCRome screening signal at RXFP2 / GPCRome screening signal at RXFP3 / GPCRome screening signal at RXFP4 / GPCRome screening signal at S1PR2 / GPCRome screening signal at S1PR3 / GPCRome screening signal at S1PR4 / GPCRome screening signal at S1PR5 / GPCRome screening signal at SCTR / GPCRome screening signal at SSTR2 / GPCRome screening signal at SSSTR / GPCRome screening signal at SSTR4 / GPCRome screening signal at SSTR5 / GPCRome screening signal at SUCNR1 / GPCRome screening signal at TA1 / GPCRome screening signal at TAAR2 / GPCRome screening signal at TAAR5 / GPCRome screening signal at TAAR6 / GPCRome screening signal at TAAR8 / GPCRome screening signal at TACR1 / GPCRome screening signal at TACR2 / GPCRome screening signal at TACR3 / GPCRome screening signal at TBXA2R / GPCRome screening signal at TSHR / GPCRome screening signal at UTS2R / GPCRome screening signal at VIPR2 / GPCRome screening signal at GPR68 no V2 Tail / GPCRome screening signal at GRM2 / GPCRome screening signal at GRM3: reference not given here
[1] = biological target: 320 non-olfactory GPCRs (Homo sapiens, UniProt O95977); details: receptor S1PR4
Chain of 320 non-olfactory GPCRs (Homo sapiens, UniProt O95977) (O95977 whole entry): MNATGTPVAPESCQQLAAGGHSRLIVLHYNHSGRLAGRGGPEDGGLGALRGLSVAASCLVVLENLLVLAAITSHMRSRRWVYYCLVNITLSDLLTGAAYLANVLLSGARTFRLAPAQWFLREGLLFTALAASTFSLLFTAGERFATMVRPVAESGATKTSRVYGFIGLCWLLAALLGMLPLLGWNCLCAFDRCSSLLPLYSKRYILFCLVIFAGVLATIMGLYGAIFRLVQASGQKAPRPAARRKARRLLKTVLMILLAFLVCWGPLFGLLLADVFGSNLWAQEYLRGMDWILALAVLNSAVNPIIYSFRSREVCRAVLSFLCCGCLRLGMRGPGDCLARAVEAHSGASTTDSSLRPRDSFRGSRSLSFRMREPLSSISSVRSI

[2] = biological target: 320 non-olfactory GPCRs (Homo sapiens, UniProt Q03431); details: receptor PTH1R
Chain of 320 non-olfactory GPCRs (Homo sapiens, UniProt Q03431) (Q03431 27-593): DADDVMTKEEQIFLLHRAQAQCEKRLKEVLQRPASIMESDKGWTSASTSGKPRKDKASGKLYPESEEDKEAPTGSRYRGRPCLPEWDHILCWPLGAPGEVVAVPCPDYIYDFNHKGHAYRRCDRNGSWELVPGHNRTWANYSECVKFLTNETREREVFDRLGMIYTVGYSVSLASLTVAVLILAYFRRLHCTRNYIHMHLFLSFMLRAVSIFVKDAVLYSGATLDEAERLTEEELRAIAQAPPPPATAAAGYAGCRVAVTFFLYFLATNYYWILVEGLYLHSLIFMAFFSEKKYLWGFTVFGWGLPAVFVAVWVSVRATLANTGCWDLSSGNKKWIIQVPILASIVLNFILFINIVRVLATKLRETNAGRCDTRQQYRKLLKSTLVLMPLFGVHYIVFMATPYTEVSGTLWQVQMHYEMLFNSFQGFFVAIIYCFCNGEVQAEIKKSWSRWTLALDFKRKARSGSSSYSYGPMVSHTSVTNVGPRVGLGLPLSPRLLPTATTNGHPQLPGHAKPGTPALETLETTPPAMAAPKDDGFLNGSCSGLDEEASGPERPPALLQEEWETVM

[3] = biological target: T1, 320 non-olfactory GPCRs (Homo sapiens, UniProt P41587); details: receptor VIPR2
T1 construct: expressed in transfected cells; host or cells: HTLA cells
T1 sequence (P41587 24-438): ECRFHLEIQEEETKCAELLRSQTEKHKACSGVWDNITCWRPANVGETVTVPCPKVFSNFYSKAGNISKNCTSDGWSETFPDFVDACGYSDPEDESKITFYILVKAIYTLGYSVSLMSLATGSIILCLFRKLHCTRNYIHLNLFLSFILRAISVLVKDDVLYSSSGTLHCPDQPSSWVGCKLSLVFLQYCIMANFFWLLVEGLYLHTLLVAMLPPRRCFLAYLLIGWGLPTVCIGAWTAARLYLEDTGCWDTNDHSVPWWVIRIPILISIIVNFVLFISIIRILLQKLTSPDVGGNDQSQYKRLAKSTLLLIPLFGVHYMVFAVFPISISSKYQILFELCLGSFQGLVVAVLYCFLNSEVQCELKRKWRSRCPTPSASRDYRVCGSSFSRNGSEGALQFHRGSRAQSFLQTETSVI

[4] = biological target: T2, 320 non-olfactory GPCRs (Homo sapiens, UniProt Q96RI9); details: receptor TAAR9
T2 construct: expressed in transfected cells; host or cells: HTLA cells
T2 sequence (Q96RI9 whole entry): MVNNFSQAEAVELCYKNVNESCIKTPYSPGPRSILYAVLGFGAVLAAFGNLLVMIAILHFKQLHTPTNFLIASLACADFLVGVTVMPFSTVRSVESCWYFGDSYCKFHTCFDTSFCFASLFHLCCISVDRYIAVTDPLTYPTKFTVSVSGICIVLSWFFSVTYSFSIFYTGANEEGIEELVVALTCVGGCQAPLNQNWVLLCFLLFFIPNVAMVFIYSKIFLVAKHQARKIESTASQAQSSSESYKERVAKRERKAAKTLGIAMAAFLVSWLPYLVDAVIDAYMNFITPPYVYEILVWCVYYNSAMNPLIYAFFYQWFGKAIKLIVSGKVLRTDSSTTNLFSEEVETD

[5] = Fig_5f, single replicate values
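For GPCRome agonism screen response in this document: fold over basal response of each receptor without drug.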

Row | SMILES | GPCRome screening signal at S1PR4 [1, 5] | GPCRome screening signal at PTH1R [2, 5] | GPCRome screening signal at VIPR2 [3, 5] | GPCRome screening signal at TAAR9 [4, 5] | GPCRome agonism screen response ([1]; replicate values, Fig_4g) | GPCRome agonism screen response ([2]; replicate values, Fig_4g) | GPCRome agonism screen response ([3]; replicate values, Fig_4g) | GPCRome agonism screen response ([4]; replicate values, Fig_4g)
1 | CCOc1ccccc1CCC(C)NCC1(O)CCCCC1.Cl (racemic) [Fig_5f] | 1.441 and 1.208 and 0.7517 and 1.693 | 2.489 and 1.041 and 1.352 and 1.077 | 0.8302 and 1.005 and 0.9541 and 0.5143 | 1.0253 and 1.396 and 1.2735 and 0.8423 |  |  |  | 
2 | CCOc1cccc2cc(C(C)NCC3(O)CCCCC3)oc12 (centres unmarked) [O4LE6] |  |  |  |  | 0.2093 and 0.09901 and 4.053 and 0.7997 | 0.6677 and 0.9983 and 1.484 and 1.06 | 0.366 and 1.433 and 1.331 and 0.8644 | 0.8369 and 1.036 and 0.7156 and 1.104
